From patent US20230250077A1, “SULFONYLBENZAMIDE DERIVATIVE AND CONJUGATE THEREOF, PREPARATION METHOD THEREFOR AND USE THEREOF” (Jiangsu Hengrui Pharmaceuticals Co., Ltd., priority 2020, published 2023)
Marks after values point to notes of the source that are not given here.

Key:
[1] = test system: SD rats; test: Toxicity test on SD rats by repeated intravenous administrations for 7 days; assay type: in vivo, rat; settings: 1 mg/kg intravenously qd
Description: This experiment was performed to evaluate the toxicity of compound 9 and AZD4320 to SD rats by repeated intravenous administrations for 7 days.
30 SD rats, weighing about 180-200 g and aged 6-7 weeks, half male and half female, purchased from Zhejiang Vital River Laboratory Animal Technology Co., Ltd., SPF grade. Animal certification number: 200917Aazz0619000298 and 20200917Aazz0619000104. Production license number: SCXK (Zhejiang) 2019-0001.
Housing conditions: SPF grade, animals were housed in plastic and transparent rat cages, 2-3 per cage. The room temperature was 20-26° C. and the relative humidity was 40%-70%. The illumination was controlled in a 12/12 light/dark cycle. The granulated feed for mice was freely taken in an unlimited amount.
The rats were randomly divided into the following 3 groups: a vehicle control group, a compound 9-1 mg/kg group and a compound AZD4320-1 mg/kg group, with 6 rats in each group, half male and half female.
Dosage of the test sample for the 7-day toxicity test in rats: 1 mg/kg (qd), for 7 consecutive days. Administration route: intravenously, dosing volume: 10 mL/kg, dosing frequency and dosing period: daily in the morning for 7 days.
Vehicle: 1.5% DMA+98.5% (10% HS-15), wherein DMA is N,N-dimethylacetamide (Shanghai Titan Scientific Co., Ltd., Cat #01013630); and HS-15 is polyethylene glycol stearate 15 (Solutol HS15) (Shanghai Xietai Chemical Co., Ltd., Cat #50253404).
Hitachi 7100 automatic biochemical analyzer
Siemens advia 2120i automatic blood cell analyzer
Sysmex ca1500 automatic coagulation analyzer
The detection results were input and statistically processed by Excel of the computer.
Clinical symptoms, food intake and general visual observation results of dissection were not statistically calculated, and indexes such as body weight, organ weight and clinical examination were counted by using T-test.
SD rats were intravenously administered with 1 mg/kg compound 9 or 1 mg/kg AZD4320 at 5 mL/kg for 7 repeated days.

[2] = Pharmacokinetic evaluation in mice (iv, LC/MS/MS plasma); assay type: in vivo; settings: C57 mice, female, intravenous administration, dose 1 mg/kg (table)
Description: The drug concentration in the plasma of the test animals (mice) at different time points after intravenous (iv) administration of compound 10 and AZD4320 was determined by an LC/MS/MS method. The pharmacokinetic behavior of the compounds of the present disclosure in mice was studied and their pharmacokinetic profile was valuated.
18 C57 mice, female, randomly divided into 2 groups, purchased from Zhejiang Vital River Laboratory Animal Technology Co., Ltd, animal production license number: SCXK (Shanghai) 2017-0005.
A certain amount of compound 10 was weighed, dissolved by adding 5% by volume of DMSO and 5% Tween 80 (Shanghai Titan Scientific Co., Ltd.), and then prepared into a 0.1 mg/mL clear solution by adding 90% normal saline. Compound AZD4320 was formulated as with compound 10. […]
(§1) The mice were intravenously administered with compound 10, and 0.1 mL of blood was collected before the administration and 5 min, 0.25 h, 0.5 h, 1.0 h, 2.0 h, 4.0 h, 8.0 h, 11.0 h and 24.0 h after the administration, put into an EDTA-K2 anticoagulation tube, centrifuged at 10,000 rpm for 1 min (4° C.). Plasma was separated within 1 hour, and stored at −20° C. for testing. The process from blood collection to centrifugation was performed under an ice bath.
as §1, with “compound AZD4320,” for “compound 10,”
The content of the test compounds at different concentrations in plasma of mice after the administration was determined: 10 μL of plasma of mice at each time point after the administration was mixed with 200 μL of methanol (containing an internal standard solution camptothecin (100 ng/mL)); the mixture was vortexed for 1 min, and centrifuged for 10 min (18,000 r/min), and 3 μL of supernatant was taken for LC/MS/MS analysis.

[3] = target: T1, BCL-xL (Homo sapiens, UniProt Q07817); test: Binding activity for BCL-xL (HTRF, biotin-labeled BIM); settings: His-tagged BCL-xL
T1 construct: purchased R&D 894-BX-050
Description: In vitro BCL-xL-binding activity was tested by the following method.
Reagents used in this experiment: His-tagged BCL-xL protein (R&D, Cat #894-BX-050); biotin-labeled BIM protein (R&D, Cat #3526/1); binding buffer (cisbio, Cat #62DLBDDF); assay buffer (cisbio, Cat #62DB1FDG); MAb anti-6His-Eu cryptate (cisbio, Cat #61HI2KLA); and affinity streptomycin linked XL665 (cisbio, Cat #611SAXLA).
The in vitro binding assay described below can determine the binding activity of test compounds for BCL-xL.
The test compounds were dissolved in dimethyl sulfoxide and diluted to gradient concentrations as required for the experiment, and the compounds at various concentrations formulated in dimethyl sulfoxide were subjected to a 100-fold dilution with a binding buffer. BCL-xL was diluted to the corresponding concentration with a binding buffer, and added to a white 384-well plate at 4 μL/well. Then the diluted test compound was added to the white 384-well plate at 2 μL/well. The plate was incubated at 25° C. for 1 h after the mixture was uniformly mixed. Biotin-labeled BIM protein was diluted to the corresponding concentration with a binding buffer, and added to a white 384-well plate at 4 μL/well. The plate was incubated at 25° C. for 2 h after the mixture was uniformly mixed. The MAb anti-6His-Eu cryptate and the affinity streptomycin linked XL665 were each diluted to the corresponding concentration with an assay buffer, and added to a white 384-well plate at 5 μL/well. The plate was incubated at 25° C. for 2-4 h after the mixture was uniformly mixed. The signal values were read with the HTRF program in a microplate reader (BMG Labtech, model: PHERAstar FS).

[4] = target: T2, BCL-2 (Homo sapiens, UniProt P10415); test: Binding activity for BCL-2 (HTRF, biotin-labeled BIM); settings: His-tagged BCL-2, biotin-labeled BIM
T2 construct: purchased R&D systems 827-BC-050
Description: In vitro BCL-2-binding activity was tested by the following method.
Reagents used in this experiment: His-tagged BCL-2 protein (R&D systems, Cat #827-BC-050); biotin-labeled BIM protein (R&D, Cat #3526/1); binding buffer (cisbio, Cat #62DLBDDF); assay buffer (cisbio, Cat #62DB1FDG); MAb anti-6His-Eu cryptate (cisbio, Cat #61HI2KLA); and affinity streptomycin linked XL665 (cisbio, Cat #611SAXLA).
The in vitro binding assay described below can determine the binding activity of test compounds for BCL-2.
The test compounds were dissolved in dimethyl sulfoxide and diluted to gradient concentrations as required for the experiment, and the compounds at various concentrations formulated in dimethyl sulfoxide were subjected to a 100-fold dilution with a binding buffer. BCL-2 was diluted to the corresponding concentration with a binding buffer solution, and added to a white 384-well plate at 4 μL/well. Then the diluted test compound was added into the white 384-well plate at 2 μL/well. The plate was incubated at 25° C. for 1 h after the mixture was uniformly mixed. Biotin-labeled BIM protein was diluted to the corresponding concentration with a binding buffer, and added to a white 384-well plate at 4 μL/well. The plate was incubated at 25° C. for 2 h after the mixture was uniformly mixed. The MAb anti-6His-Eu cryptate and the affinity streptomycin linked XL665 were each diluted to the corresponding concentration with an assay buffer, and added to a white 384-well plate at 5 μL/well. The plate was incubated at 25° C. for 2-4 h after the mixture was uniformly mixed. The signal values were read with the HTRF program in a microplate reader (BMG Labtech, model: PHERAstar FS).

[5] = test system: RS4;11 cells; test: Inhibition of proliferation of RS4;11 cells (CellTiter-Glo); assay type: cell-based; settings: Homo sapiens, 72 h, 3 days, read-out: Inhibitory activity IC50 (nM) for the proliferation of RS4;11 cells
Description: (§2) In vitro inhibitory activity for the proliferation of RS4;11 cells and NCI-H146 cells was tested by the following method.
(§3) Reagents used in this experiment: RPMI-1640 medium (HyCLone, Cat #SH30243018); fetal bovine serum (Gibco, Cat #10099-141); pancreatin (Gibco, Cat #25200-072); Cell Titer-Glo (Promega, Cat #G7571).
(§4) Materials used: RS4;11 cells (Nanjing Kebai Biotechnology Co., Ltd, Cat #CBP60641); and NCI-H146 cells (ATCC, Cat #HTB-173).
(§5) The in vitro cell proliferation assay described below can determine the inhibitory activity of the test compounds for the proliferation of RS4;11 cells and NCI-H146 cells.
(§6) RS4;11 cells (or NCI-H146 cells) were cultured in an RPMI-1640 culture medium containing 10% FBS, and were passaged for 2-3 times a week in a passage ratio of 1:3 or 1:5. During passage, the cells were transferred to a centrifuge tube, and centrifuged at 1200 rpm for 3 min. The supernatant was discarded, and fresh culture medium was added to resuspend the cells. 90 μL of cell suspension was added to a 96-well cell culture plate, wherein RS4;11 cells and NCI-H146 cells were added at a density of 2.22×10^5 cells/mL. Only 100 μL of complete medium (RPMI-1640 medium containing 10% FBS) was added to the periphery of the 96-well plate. The plate was incubated in an incubator for 24 h (37° C., 5% CO2).
(§7) The test sample was diluted to a proper concentration gradient with dimethyl sulfoxide as required for the experiment. 5 μL of the solution of the test compound prepared in a gradient concentration was added to 95 μL of fresh culture medium and mixed uniformly, and then 10 μL of the culture medium containing the above compound was added to a cell culture plate. The cell culture plate was incubated in an incubator for 3 days (37° C., 5% CO2). 50 μL of CellTiter-Glo reagent was added into each well of the 96-well cell culture plate. The plate was let stand for 5-10 min away from the light at room temperature. The chemiluminescence signals were read by a microplate reader (BMG Labtech, model: PHERAstar FS) and the data were processed by GraphPad software.

[6] = test system: NCI-H146 cells; test: Inhibition of proliferation of NCI-H146 cells (CellTiter-Glo); assay type: cell-based; settings: Homo sapiens, 72 h, 3 days, read-out: Inhibitory activity IC50 (nM) for the proliferation of NCI-H146 cells
Description: as §2, §3, §4, §5, §6, §7

T1 sequence (Q07817 whole entry): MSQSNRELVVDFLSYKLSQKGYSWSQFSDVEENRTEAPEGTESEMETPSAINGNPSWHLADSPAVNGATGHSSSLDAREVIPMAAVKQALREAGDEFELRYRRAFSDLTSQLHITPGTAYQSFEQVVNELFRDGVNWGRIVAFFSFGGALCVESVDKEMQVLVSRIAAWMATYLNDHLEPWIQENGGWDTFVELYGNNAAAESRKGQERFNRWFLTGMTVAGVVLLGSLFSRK
T2 sequence (P10415 whole entry): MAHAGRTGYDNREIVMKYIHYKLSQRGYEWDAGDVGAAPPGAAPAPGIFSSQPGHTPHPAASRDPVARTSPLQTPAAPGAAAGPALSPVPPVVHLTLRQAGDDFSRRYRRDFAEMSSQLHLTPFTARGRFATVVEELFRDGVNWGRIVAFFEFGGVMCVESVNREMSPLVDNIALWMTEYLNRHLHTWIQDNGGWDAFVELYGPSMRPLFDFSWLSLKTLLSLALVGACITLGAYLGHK

Clearance CLz/F [2] [mL/min/kg] | AUC(0-t) ([2]; mouse, plasma, read-out: Area under curve AUC0-t) [ng·h/mL] | half-life ([2]; mouse, plasma, read-out: Half-life T½ (converted)) [h] | MRT inf ([2]; mouse, plasma, read-out: Mean retention time MRT 0-∞) [h] | concentration at 5 min ([2]; mouse, plasma, read-out: Plasma Concentration C5 min) [ng/mL] | Ki [3] [nM] | Ki [4] [nM] | IC50 [5] [nM] | IC50 [6] [nM] | Structure (SMILES) | PLT (10^9/L) [1] | Effect on platelets (in words) ([1]; vs vehicle control)
72.7 | 206 | 3.1 | 2.4 | 436 |  |  |  |  | CN(CCO)CC[C@H](CSc1ccccc1)Nc1ccc(S(=O)(=O)NC(=O)c2ccc(N3CCC([C@@H](O)c4ccccc4-c4ccc(Cl)cc4)CC3)cc2)cc1S(=O)(=O)C(F)(F)F [AZD4320, reference compound] | 807.50** 10^9/L | more significantly reduced
 |  |  |  |  | 0.3 | 0.04 | 7 | 35 | O=C(NS(=O)(=O)c1ccc(N[C@@H](CSc2ccccc2)C[C@@H]2CCCN2CCO)c(S(=O)(=O)C(F)(F)F)c1)c1ccc(N2CCC([C@@H](O)c3ccccc3-c3ccc(C(F)(F)F)cc3)CC2)cc1 [Example 2-13, 4-(4-((R)-hydroxy(4′-(trifluoromethyl)-[1,1′-biphenyl]-2-yl)methyl)piperidin-1-yl)-N-((4-(((R)-1-((S)-1-(2-hydroxyethyl)pyrrolidin-2-yl)-3-(phenylthio)propan-2-yl)amino)-3-((trifluoromethyl)sulfonyl)phenyl)sulfonyl)benzamide] |  | 
